In ChEMBL document CHEMBL5653599, “AZD1152, a novel and selective aurora B kinase inhibitor, induces growth arrest, apoptosis, and sensitization for tubulin depolymerizing agent or topoisomerase II inhibitor in human acute leukemia cells in vitro and in vivo” (Blood, 2007):
The source made the active and inactive calls. The rule behind the calls is not given here.

Assays:
[1] = molecular target: Aurora kinase B (Homo sapiens) (UniProt Q96GD4); assay: Inhibition of Aurora B in human MV4-11 cells assessed as decrease in histone H3 phosphorylation at Ser10 at 10 nM incubated for 24 hrs by flow cytometry (reference value: 52 %); type: cell-based; set-up: scale not given: the % may be the effect or the level left
[2] = test system: MOLM-13; assay: Antitumor activity against human MOLM-13 cells xenografted in immunodeficient nude BALB/c mouse model assessed as suppression of tumor weight at 25 mg/kg, ip administered 4 times a week for 2 weeks measured twice per week; type: functional, organism-based
[3] = test system: MOLM-13; assay: Antitumor activity against human MOLM-13 cells xenografted in immunodeficient nude BALB/c mouse model assessed as decrease in tumor weight at 25 mg/kg, ip administered 4 times a week for 2 weeks measured twice per week (reference value: 583 +/- 150 mg); type: functional
[4] = test system: MOLM-13; assay: Antitumor activity against human MOLM-13 cells xenografted in immunodeficient nude BALB/c mouse model assessed as absence of leukemia cells at 25 mg/kg, ip administered 4 times a week for 2 weeks by H and E staining based analysis; type: functional, organism-based
[5] = test system: MOLM-13; assay: Antitumor activity against human MOLM-13 cells xenografted in immunodeficient nude BALB/c mouse model assessed as reduction in tumor growth at 5 mg/kg, ip administered 4 times a week for 2 weeks in presence of daunorubicin; type: functional, organism-based
[6] = molecular target: Aurora kinase B (Homo sapiens) (UniProt Q96GD4); assay: Inhibition of Aurora B in human MOLM-13 cells assessed as decrease in histone H3 phosphorylation at Ser10 at 10 nM incubated for 24 hrs by flow cytometry (reference value: 43 %); type: cell-based; set-up: scale not given: the % may be the effect or the level left
[7] = test system: MOLM-13; assay: Antitumor activity against human MOLM-13 cells xenografted in immunodeficient nude BALB/c mouse model assessed as suppression of tumor growth at 25 mg/kg, ip administered 4 times a week for 2 weeks measured twice per week; type: functional, organism-based
[8] = test system: MOLM-13; assay: Antitumor activity against human MOLM-13 cells xenografted in immunodeficient nude BALB/c mouse model assessed as reduction in tumor weight at 5 mg/kg, ip administered 4 times a week for 2 weeks in presence of vincristine; type: functional, organism-based
[9] = test system: MOLM-13; assay: Antitumor activity against human MOLM-13 cells xenografted in immunodeficient nude BALB/c mouse model assessed as necrotic tissue with infiltration of phagocytic cells at 25 mg/kg, ip administered 4 times a week for 2 weeks by H and E staining based analysis; type: functional, organism-based
[10] = test system: MOLM-13; assay: In vivo antiproliferative activity against human MOLM-13 cells xenografted in immunodeficient nude BALB/c mouse model assessed as inhibition of cell proliferation at 5 mg/kg, ip administered 4 times a week for 2 weeks relative to control; type: functional; conditions: MOLM-13, 336 h
[11] = test system: MOLM-13; assay: Antitumor activity against human MOLM-13 cells xenografted in immunodeficient nude BALB/c mouse model assessed as tumor growth inhibition at 5 mg/kg, ip administered 4 times a week for 2 weeks in presence of vincristine relative to control; type: functional; conditions: MOLM-13, 336 h
[12] = test system: MOLM-13; assay: Antitumor activity against human MOLM-13 cells xenografted in immunodeficient nude BALB/c mouse model assessed as decrease in tumor volume at 25 mg/kg, ip administered 4 times a week for 2 weeks measured twice per week (reference value: 1261 +/- 200 mm3); type: functional
[13] = Toxicity in immunodeficient nude BALB/c mouse model xenografted with human MOLM-13 cells assessed as signs of toxicity at 25 mg/kg, ip administered 4 times a week for 2 weeks measured twice per week; type: organism-based; conditions: in vivo, 336 h
[14] = Toxicity in immunodeficient nude BALB/c mouse model xenografted with human MOLM-13 cells assessed as signs of body wasting at 5 mg/kg, ip administered 4 times a week for 2 weeks in presence of vincristine; type: organism-based; conditions: in vivo, 336 h
[15] = Toxicity in immunodeficient nude BALB/c mouse model xenografted with human MOLM-13 cells assessed as signs of body wasting at 25 mg/kg, ip administered 4 times a week for 2 weeks measured twice per week; type: organism-based; conditions: in vivo, 336 h
[16] = Toxicity in immunodeficient nude BALB/c mouse model xenografted with human MOLM-13 cells at 1 mg/kg, ip administered 6 times in 2 weeks; type: organism-based; conditions: in vivo, 336 h
[17] = test system: PALL-2; assay: Induction of apoptosis in human PALL-2 cells assessed as increase in cleaved PARP level at 1 to 3 nM in presence of vincristine by immunoblot analysis; type: functional, cell-based; conditions: dose 1-3 nM
[18] = test system: MOLM-13; assay: Inhibition of cell proliferation of human MOLM-13 cells incubated for 48 hrs by 3H-thymidine uptake assay; type: functional, cell-based
[19] = test system: MOLM-13; assay: Induction of apoptosis in human MOLM-13 cells assessed as increase in cleaved PARP level at 3 to 10 nM in presence of daunorubicin by immunoblot analysis; type: functional, cell-based; conditions: dose 3-10 nM
[20] = molecular target: Aurora kinase B (Homo sapiens) (UniProt Q96GD4); conditions: PALL-2, dose <= 10.0 nM, time 24-48 hrs
Description: Inhibition of Aurora B in human PALL-2 cells assessed as increase in 4N/8N DNA content measured for 24 to 48 hrs by FACS analysis

[21] = test system: MOLM-13; assay: Induction of apoptosis in human MOLM-13 cells assessed as late apoptotic cells at 10 nM incubated for 24 hrs by annexin V/PI staining based flow cytometry (reference value: 2.2 %); type: functional
[22] = test system: MOLM-13; assay: Induction of apoptosis in human MOLM-13 cells assessed as early apoptotic cells at 1 nM incubated for 48 hrs by annexin V/PI staining based flow cytometry (reference value: 3.2 %); type: functional
[23] = test system: MOLM-13; assay: Induction of apoptosis in human MOLM-13 cells assessed as late apoptotic cells at 1 nM incubated for 48 hrs by annexin V/PI staining based flow cytometry (reference value: 1.9 %); type: functional
[24] = test system: MOLM-13; assay: Induction of apoptosis in human MOLM-13 cells assessed as increase in cleaved PARP level at 1 to 3 nM in presence of vincristine by immunoblot analysis; type: functional, cell-based; conditions: dose 1-3 nM
[25] = test system: MOLM-13; assay: Induction of apoptosis in human MOLM-13 cells assessed as late apoptotic cells at 3 nM incubated for 24 hrs by annexin V/PI staining based flow cytometry (reference value: 2.2 %); type: functional
[26] = molecular target: Aurora kinase B (Homo sapiens) (UniProt Q96GD4); conditions: MOLM-13, dose <= 10.0 nM, time 24-48 hrs
Description: Inhibition of Aurora B in human MOLM-13 cells assessed as increase in 4N/8N DNA content upto 10 nM by FACS analysis

[27] = test system: MOLM-13; conditions: Homo sapiens, dose 1-10 nM
[28] = Inhibition of cell proliferation of human PALL-2 cells incubated for 48 hrs by 3H-thymidine uptake assay; type: functional, cell-based
[29] = test system: MOLM-13; assay: Induction of apoptosis in human MOLM-13 cells assessed as early apoptotic cells at 1 nM incubated for 24 hrs by annexin V/PI staining based flow cytometry (reference value: 2.4 %); type: functional
[30] = test system: MOLM-13; assay: Induction of apoptosis in human MOLM-13 cells assessed as early apoptotic cells at 10 nM incubated for 48 hrs by annexin V/PI staining based flow cytometry (reference value: 3.2 %); type: functional
[31] = test system: MV4-11; assay: Inhibition of clonogenic growth in human MV4-11 cells incubated for 10 days; type: functional, cell-based; conditions: MV4-11, 240 h
[32] = test system: MOLM-13; assay: Induction of apoptosis in human MOLM-13 cells assessed as late apoptotic cells at 1 nM incubated for 24 hrs by annexin V/PI staining based flow cytometry (reference value: 2.2 %); type: functional
[33] = test system: MOLM-13; conditions: Homo sapiens, dose 1.0 nM
[34] = test system: MOLM-13; assay: Induction of apoptosis in human MOLM-13 cells assessed as early apoptotic cells at 10 nM incubated for 24 hrs by annexin V/PI staining based flow cytometry (reference value: 2.4 %); type: functional
[35] = molecular target: Aurora kinase B (Homo sapiens) (UniProt Q96GD4); conditions: PALL-2, dose <= 10.0 nM, time 24-48 hrs; remark: listed apart in the source
Description: Inhibition of Aurora B in human PALL-2 cells assessed as increase in 4N/8N DNA content upto 10 nM by FACS analysis

[36] = test system: MOLM-13; assay: Induction of apoptosis in human MOLM-13 cells assessed as early apoptotic cells at 3 nM incubated for 48 hrs by annexin V/PI staining based flow cytometry (reference value: 3.2 %); type: functional
[37] = test system: MOLM-13; assay: Induction of apoptosis in human MOLM-13 cells assessed as late apoptotic cells at 3 nM incubated for 48 hrs by annexin V/PI staining based flow cytometry (reference value: 1.9 %); type: functional
[38] = test system: MOLM-13; assay: Induction of apoptosis in human MOLM-13 cells assessed as early apoptotic cells at 3 nM incubated for 24 hrs by annexin V/PI staining based flow cytometry (reference value: 2.4 %); type: functional
[39] = Antiproliferative activity against human PALL-2 cells assessed as inhibition of cell proliferation at 3 nM by 3H-thymidine incorporation assay relative to control; type: functional
[40] = molecular target: Aurora kinase B (Homo sapiens) (UniProt Q96GD4); conditions: MOLM-13, dose <= 10.0 nM, time 24-48 hrs; remark: listed apart in the source
Description: Inhibition of Aurora B in human MOLM-13 cells assessed as increase in 4N/8N DNA content measured for 24 to 48 hrs by FACS analysis

[41] = test system: MOLM-13; assay: Inhibition of clonogenic growth in human MOLM-13 cells incubated for 10 days; type: functional, cell-based; conditions: MOLM-13, 240 h
[42] = test system: MV4-11; assay: Inhibition of cell proliferation of human MV4-11 cells incubated for 48 hrs by 3H-thymidine uptake assay; type: functional, cell-based
[43] = Synergistic antiproliferative activity against human PALL-2 cells assessed as inhibition of cell proliferation at 0.3 to 3 nM in presence of vincristine by 3H-thymidine incorporation assay relative to control; type: functional; conditions: dose 0.3-3 nM
[44] = test system: MOLM-13; assay: Induction of apoptosis in human MOLM-13 cells assessed as late apoptotic cells at 10 nM incubated for 48 hrs by annexin V/PI staining based flow cytometry (reference value: 1.9 %); type: functional
[45] = test system: MOLM-13; assay: In vivo antiproliferative activity against human MOLM-13 cells xenografted in immunodeficient nude BALB/c mouse model assessed as inhibition of cell proliferation at 0.2 mg/kg, ip administered for 2 weeks on every another day for first week relative to control; type: functional; conditions: MOLM-13, 336 h
[46] = test system: MOLM-13; assay: Induction of apoptosis in human MOLM-13 cells assessed as increase in cleaved PARP level by immunoblot analysis; type: functional, cell-based; conditions: dose 0.1-1 µM
[47] = Antiproliferative activity against human PALL-2 cells assessed as inhibition of cell proliferation at 0.3 uM by 3H-thymidine incorporation assay relative to control; type: functional
[48] = test system: PALL-2; assay: Induction of apoptosis in human PALL-2 cells assessed as increase in cleaved PARP level by immunoblot analysis; type: functional, cell-based; conditions: dose 0.1-1 µM

Chain of Aurora kinase B (Homo sapiens) (Q96GD4 whole entry): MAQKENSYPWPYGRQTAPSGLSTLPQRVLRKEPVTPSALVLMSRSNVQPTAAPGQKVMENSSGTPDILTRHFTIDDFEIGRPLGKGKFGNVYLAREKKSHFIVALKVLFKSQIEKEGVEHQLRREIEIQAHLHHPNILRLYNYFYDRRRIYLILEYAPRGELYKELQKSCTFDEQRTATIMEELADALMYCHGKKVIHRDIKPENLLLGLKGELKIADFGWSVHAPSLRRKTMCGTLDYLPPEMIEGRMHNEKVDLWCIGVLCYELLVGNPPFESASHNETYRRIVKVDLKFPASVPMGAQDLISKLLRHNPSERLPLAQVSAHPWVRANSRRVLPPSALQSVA

CCN(CCCOc1ccc2c(Nc3cc(CC(=O)Nc4cccc(F)c4)[nH]n3)ncnc2c1)CCOP(=O)(O)O [BARASERTIB]
Activity [1]: 19% | Activity [2]: Active | Activity [3]: 78 mg | Activity [4]: Active | Activity [5]: Active | Activity [6]: 25% | Activity [7]: Active | Activity [8]: Active | Activity [9]: Active | inhibition in vivo at 5 mg/kg [10]: ~50% | inhibition in vivo at 5 mg/kg [11]: ~100% | Activity [12]: 71 mm3

CCN(CCCOc1ccc2c(Nc3cc(CC(=O)Nc4cccc(F)c4)n[nH]3)ncnc2c1)CCOP(=O)(O)O [BARASERTIB]
Activity [13]: Non-Toxic | Activity [14]: Non-Toxic | Activity [15]: Non-Toxic

COc1cccc2c1C(=O)c1c(O)c3c(c(O)c1C2=O)C[C@@](O)(C(C)=O)C[C@@H]3O[C@H]1C[C@H](N)[C@H](O)[C@H](C)O1 [DAUNORUBICIN]
Activity [16]: Toxic

CCN(CCO)CCCOc1ccc2c(Nc3cc(CC(=O)Nc4cccc(F)c4)[nH]n3)ncnc2c1 [DEFOSBARASERTIB]
Activity [17]: Active | IC50 [18]: 12 nM | Activity [19]: Active | inhibition [20]: Dose-Dependent Effect | Activity [21]: 7.1% | Activity [22]: 1.9% | Activity [23]: 3.8% | Activity [24]: Active | Activity [25]: 3.8% | inhibition [26]: Tde | inhibition [27]: Active | IC50 [28]: 5 nM | Activity [29]: 3.1% | Activity [30]: 36% | IC50 [31]: 2.8 nM | Activity [32]: 4.3% | inhibition [33]: Active | Activity [34]: 6.5% | inhibition [35]: Tde | Activity [36]: 2.2% | Activity [37]: 3.5% | Activity [38]: 3.4% | inhibition at 0.003 µM [39]: ~35% | inhibition [40]: Dose-Dependent Effect | IC50 [41]: 1 nM | IC50 [42]: 8 nM | inhibition (INH) [43]: ~80% | Activity [44]: 15%

CC[C@]1(O)C[C@H]2CN(CCc3c([nH]c4ccccc34)[C@@](C(=O)OC)(c3cc4c(cc3OC)N(C=O)[C@H]3[C@@](O)(C(=O)OC)[C@H](OC(C)=O)[C@]5(CC)C=CCN6CC[C@]43[C@@H]65)C2)C1 [VINCRISTINE]
inhibition in vivo at 0.2 mg/kg [45]: ~50% | Activity [46]: Dose-Dependent Effect | inhibition at 0.3 µM [47]: ~35% | Activity [48]: Dose-Dependent Effect
